From patent publication US20010014364A1, “Use of stabilized bromine to improve quality and appearance of leafy vegetables or the like” (priority 1997, published 2001)

Tests used:
[1] = tested on: aerobic plate count bacteria; test: Aerobic plate count (APC) bacteria on leaf lettuce after direct application of halogen solution and during storage; assay type: cell-based; conditions: for Log reduction of microbial populations from leaf lettuce surface / Percent reduction of microbial populations from leaf lettuce surface: APC, compared to unwashed control; for Aerobic plate count (APC) bacterial populations: storage at 4-6° C.
Experimental: (§1) Solutions of either stabilized sodium hyprobromite or industrial unstabilized sodium hypochlorite were added to “tap” water in order to achieve a 50, 100, or 200 ppm total halogen residual (as chlorine). The “tap” water contained calcium (90 ppm as CaCO3), “M” alkalinity (110 ppm as CaCO3) and magnesium (50 ppm as CaCO3) in deionized water. The “tap” water was buffered at pH 7.5 using borax and monobasic potassium phosphate. Solutions of stabilized sodium hypobromite or unstabilized sodium hypochlorite were applied directly to leaf lettuce by dipping the lettuce in the solutions for 3-minutes. Lettuce was immediately removed, drained for 1-minute, rinsed for 30-seconds with potable water, drained for 1-minute, and then spun dry with a bench-top lettuce spinner. Lettuce was analyzed for microbial populations remaining on the surface and 50-gram portions were stored at 4-6° C. for shelf-life evaluation. Shelf-life was visually judged for changes in color (browning) and odor.

[2] = tested on: yeast and mold; test: Yeast and mold (YM) count on leaf lettuce after direct application of halogen solution and during storage; assay type: cell-based; conditions: for Yeast and mold (YM) count populations: storage at 4-6° C.; for Log reduction of microbial populations from leaf lettuce surface / Percent reduction of microbial populations from leaf lettuce surface: YM, compared to unwashed control
Experimental: as §1

Compound: OCl [Bleach, sodium hypochlorite]
- Log reduction of microbial populations from leaf lettuce surface ([1]; 50 ppm av. Cl2): 2.1 Log
- Percent reduction of microbial populations from leaf lettuce surface ([1]; 50 ppm av. Cl2): 99.200%
- Log reduction of microbial populations from leaf lettuce surface ([1]; 100 ppm av. Cl2): 2.1 Log
- Percent reduction of microbial populations from leaf lettuce surface ([1]; 100 ppm av. Cl2): 99.120%
- Log reduction of microbial populations from leaf lettuce surface ([1]; 200 ppm av. Cl2): 2.1 Log
- Percent reduction of microbial populations from leaf lettuce surface ([1]; 200 ppm av. Cl2): 99.200%
- Aerobic plate count (APC) bacterial populations ([1]; Day 0, 50 ppm av. Cl2): 5.3 Log10 CFU/g lettuce
- Aerobic plate count (APC) bacterial populations ([1]; Day 0, 100 ppm av. Cl2): 5.3 Log10 CFU/g lettuce
- Aerobic plate count (APC) bacterial populations ([1]; Day 0, 200 ppm av. Cl2): 5.3 Log10 CFU/g lettuce
- Aerobic plate count (APC) bacterial populations ([1]; Day 1, 50 ppm av. Cl2): 5.4 Log10 CFU/g lettuce
- Aerobic plate count (APC) bacterial populations ([1]; Day 1, 100 ppm av. Cl2): 5.3 Log10 CFU/g lettuce
- Aerobic plate count (APC) bacterial populations ([1]; Day 1, 200 ppm av. Cl2): 5.5 Log10 CFU/g lettuce
- Aerobic plate count (APC) bacterial populations ([1]; Day 2, 50 ppm av. Cl2): 6.4 Log10 CFU/g lettuce
- Aerobic plate count (APC) bacterial populations ([1]; Day 2, 100 ppm av. Cl2): 6.6 Log10 CFU/g lettuce
- Aerobic plate count (APC) bacterial populations ([1]; Day 2, 200 ppm av. Cl2): 7.0 Log10 CFU/g lettuce
- Aerobic plate count (APC) bacterial populations ([1]; Day 4, 50 ppm av. Cl2): 6.5 Log10 CFU/g lettuce
- Aerobic plate count (APC) bacterial populations ([1]; Day 4, 100 ppm av. Cl2): 6.6 Log10 CFU/g lettuce
- Aerobic plate count (APC) bacterial populations ([1]; Day 4, 200 ppm av. Cl2): 7.5 Log10 CFU/g lettuce
- Aerobic plate count (APC) bacterial populations ([1]; Day 5, 50 ppm av. Cl2): 6.0 Log10 CFU/g lettuce
- Aerobic plate count (APC) bacterial populations ([1]; Day 5, 100 ppm av. Cl2): 6.4 Log10 CFU/g lettuce
- Aerobic plate count (APC) bacterial populations ([1]; Day 5, 200 ppm av. Cl2): 6.6 Log10 CFU/g lettuce
- Aerobic plate count (APC) bacterial populations ([1]; Day 6, 50 ppm av. Cl2): 6.6 Log10 CFU/g lettuce
- Aerobic plate count (APC) bacterial populations ([1]; Day 6, 100 ppm av. Cl2): 6.6 Log10 CFU/g lettuce
- Aerobic plate count (APC) bacterial populations ([1]; Day 6, 200 ppm av. Cl2): 8.1 Log10 CFU/g lettuce
- Aerobic plate count (APC) bacterial populations ([1]; Day 7, 50 ppm av. Cl2): 7.2 Log10 CFU/g lettuce
- Aerobic plate count (APC) bacterial populations ([1]; Day 7, 100 ppm av. Cl2): 7.2 Log10 CFU/g lettuce
- Aerobic plate count (APC) bacterial populations ([1]; Day 7, 200 ppm av. Cl2): 7.7 Log10 CFU/g lettuce
- Aerobic plate count (APC) bacterial populations ([1]; Day 8, 50 ppm av. Cl2): 7.7 Log10 CFU/g lettuce
- Aerobic plate count (APC) bacterial populations ([1]; Day 8, 100 ppm av. Cl2): 8.1 Log10 CFU/g lettuce
- Aerobic plate count (APC) bacterial populations ([1]; Day 8, 200 ppm av. Cl2): 7.6 Log10 CFU/g lettuce
- Aerobic plate count (APC) bacterial populations ([1]; Day 9, 50 ppm av. Cl2): 7.6 Log10 CFU/g lettuce
- Aerobic plate count (APC) bacterial populations ([1]; Day 9, 100 ppm av. Cl2): 7.4 Log10 CFU/g lettuce
- Aerobic plate count (APC) bacterial populations ([1]; Day 9, 200 ppm av. Cl2): 7.5 Log10 CFU/g lettuce
- Aerobic plate count (APC) bacterial populations ([1]; Day 10, 50 ppm av. Cl2): 7.6 Log10 CFU/g lettuce
- Aerobic plate count (APC) bacterial populations ([1]; Day 10, 100 ppm av. Cl2): 7.0 Log10 CFU/g lettuce
- Aerobic plate count (APC) bacterial populations ([1]; Day 10, 200 ppm av. Cl2): 8.6 Log10 CFU/g lettuce
- Aerobic plate count (APC) bacterial populations ([1]; Day 11, 50 ppm av. Cl2): 8.0 Log10 CFU/g lettuce
- Aerobic plate count (APC) bacterial populations ([1]; Day 11, 100 ppm av. Cl2): 7.9 Log10 CFU/g lettuce
- Aerobic plate count (APC) bacterial populations ([1]; Day 11, 200 ppm av. Cl2): 8.5 Log10 CFU/g lettuce
- Aerobic plate count (APC) bacterial populations ([1]; Day 12, 50 ppm av. Cl2): 8.3 Log10 CFU/g lettuce
- Aerobic plate count (APC) bacterial populations ([1]; Day 12, 100 ppm av. Cl2): 8.0 Log10 CFU/g lettuce
- Aerobic plate count (APC) bacterial populations ([1]; Day 12, 200 ppm av. Cl2): 8.4 Log10 CFU/g lettuce
- Yeast and mold (YM) count populations ([2]; Day 0, 50 ppm av. Cl2): 2.8 Log10 CFU/g lettuce
- Yeast and mold (YM) count populations ([2]; Day 0, 100 ppm av. Cl2): 2.9 Log10 CFU/g lettuce
- Yeast and mold (YM) count populations ([2]; Day 0, 200 ppm av. Cl2): 2.7 Log10 CFU/g lettuce
- Yeast and mold (YM) count populations ([2]; Day 1, 50 ppm av. Cl2): 2.7 Log10 CFU/g lettuce
- Yeast and mold (YM) count populations ([2]; Day 1, 100 ppm av. Cl2): 2.9 Log10 CFU/g lettuce
- Yeast and mold (YM) count populations ([2]; Day 1, 200 ppm av. Cl2): 2.7 Log10 CFU/g lettuce
- Yeast and mold (YM) count populations ([2]; Day 2, 50 ppm av. Cl2): 2.7 Log10 CFU/g lettuce
- Yeast and mold (YM) count populations ([2]; Day 2, 100 ppm av. Cl2): 2.8 Log10 CFU/g lettuce
- Yeast and mold (YM) count populations ([2]; Day 2, 200 ppm av. Cl2): 2.8 Log10 CFU/g lettuce
- Yeast and mold (YM) count populations ([2]; Day 4, 50 ppm av. Cl2): 4.5 Log10 CFU/g lettuce
- Yeast and mold (YM) count populations ([2]; Day 4, 100 ppm av. Cl2): 4.1 Log10 CFU/g lettuce
- Yeast and mold (YM) count populations ([2]; Day 4, 200 ppm av. Cl2): 4.4 Log10 CFU/g lettuce
- Yeast and mold (YM) count populations ([2]; Day 5, 50 ppm av. Cl2): 3.3 Log10 CFU/g lettuce
- Yeast and mold (YM) count populations ([2]; Day 5, 100 ppm av. Cl2): 3.5 Log10 CFU/g lettuce
- Yeast and mold (YM) count populations ([2]; Day 5, 200 ppm av. Cl2): 3.0 Log10 CFU/g lettuce
- Yeast and mold (YM) count populations ([2]; Day 6, 50 ppm av. Cl2): 3.8 Log10 CFU/g lettuce
- Yeast and mold (YM) count populations ([2]; Day 6, 100 ppm av. Cl2): 3.9 Log10 CFU/g lettuce
- Yeast and mold (YM) count populations ([2]; Day 6, 200 ppm av. Cl2): 4.5 Log10 CFU/g lettuce
- Yeast and mold (YM) count populations ([2]; Day 7, 50 ppm av. Cl2): 3.7 Log10 CFU/g lettuce
- Yeast and mold (YM) count populations ([2]; Day 7, 100 ppm av. Cl2): 4.5 Log10 CFU/g lettuce
- Yeast and mold (YM) count populations ([2]; Day 7, 200 ppm av. Cl2): 4.0 Log10 CFU/g lettuce
- Yeast and mold (YM) count populations ([2]; Day 8, 50 ppm av. Cl2): 4.4 Log10 CFU/g lettuce
- Yeast and mold (YM) count populations ([2]; Day 8, 100 ppm av. Cl2): 4.9 Log10 CFU/g lettuce
- Yeast and mold (YM) count populations ([2]; Day 8, 200 ppm av. Cl2): 4.4 Log10 CFU/g lettuce
- Yeast and mold (YM) count populations ([2]; Day 9, 50 ppm av. Cl2): 4.0 Log10 CFU/g lettuce
- Yeast and mold (YM) count populations ([2]; Day 9, 100 ppm av. Cl2): 4.6 Log10 CFU/g lettuce
- Yeast and mold (YM) count populations ([2]; Day 9, 200 ppm av. Cl2): 4.2 Log10 CFU/g lettuce
- Yeast and mold (YM) count populations ([2]; Day 10, 50 ppm av. Cl2): 4.1 Log10 CFU/g lettuce
- Yeast and mold (YM) count populations ([2]; Day 10, 100 ppm av. Cl2): 3.8 Log10 CFU/g lettuce
- Yeast and mold (YM) count populations ([2]; Day 10, 200 ppm av. Cl2): 4.5 Log10 CFU/g lettuce
- Yeast and mold (YM) count populations ([2]; Day 11, 50 ppm av. Cl2): 4.9 Log10 CFU/g lettuce
- Yeast and mold (YM) count populations ([2]; Day 11, 100 ppm av. Cl2): 4.5 Log10 CFU/g lettuce
- Yeast and mold (YM) count populations ([2]; Day 11, 200 ppm av. Cl2): 4.6 Log10 CFU/g lettuce
- Yeast and mold (YM) count populations ([2]; Day 12, 50 ppm av. Cl2): 5.5 Log10 CFU/g lettuce
- Yeast and mold (YM) count populations ([2]; Day 12, 100 ppm av. Cl2): 4.8 Log10 CFU/g lettuce
- Yeast and mold (YM) count populations ([2]; Day 12, 200 ppm av. Cl2): 4.8 Log10 CFU/g lettuce
- Log reduction of microbial populations from leaf lettuce surface ([2]; 50 ppm av. Cl2): 2.4 Log
- Percent reduction of microbial populations from leaf lettuce surface ([2]; 50 ppm av. Cl2): 99.647%
- Log reduction of microbial populations from leaf lettuce surface ([2]; 100 ppm av. Cl2): 2.3 Log
- Percent reduction of microbial populations from leaf lettuce surface ([2]; 100 ppm av. Cl2): 99.494%
- Log reduction of microbial populations from leaf lettuce surface ([2]; 200 ppm av. Cl2): 2.5 Log
- Percent reduction of microbial populations from leaf lettuce surface ([2]; 200 ppm av. Cl2): 97.729%
- Yeasts and molds reduced ([2]; lettuce washed with the halogen solution): about 2 log
